# Paper PMC9551036, “A selective and orally bioavailable VHL-recruiting PROTAC achieves SMARCA2 degradation in vivo” (Nature Communications, 2022)
# “And” between values parts separate entries of the source, which are not always exact repeats. Identical values can stand only once. “Also recorded” adds a separate entry of the source.
# Key:
# SMARCA2 = SMARCA2 (Homo sapiens, UniProt P51531); assay: SMARCA2 IHC in A549 xenograft tumours; type: in vivo, mouse; set-up: from tissue; host or cells: subcutaneous NCI-H1568 or A549 xenograft tumours in BomTac:NMRI-Foxn1nu mice
# Chain of SMARCA2 (P51531 whole entry): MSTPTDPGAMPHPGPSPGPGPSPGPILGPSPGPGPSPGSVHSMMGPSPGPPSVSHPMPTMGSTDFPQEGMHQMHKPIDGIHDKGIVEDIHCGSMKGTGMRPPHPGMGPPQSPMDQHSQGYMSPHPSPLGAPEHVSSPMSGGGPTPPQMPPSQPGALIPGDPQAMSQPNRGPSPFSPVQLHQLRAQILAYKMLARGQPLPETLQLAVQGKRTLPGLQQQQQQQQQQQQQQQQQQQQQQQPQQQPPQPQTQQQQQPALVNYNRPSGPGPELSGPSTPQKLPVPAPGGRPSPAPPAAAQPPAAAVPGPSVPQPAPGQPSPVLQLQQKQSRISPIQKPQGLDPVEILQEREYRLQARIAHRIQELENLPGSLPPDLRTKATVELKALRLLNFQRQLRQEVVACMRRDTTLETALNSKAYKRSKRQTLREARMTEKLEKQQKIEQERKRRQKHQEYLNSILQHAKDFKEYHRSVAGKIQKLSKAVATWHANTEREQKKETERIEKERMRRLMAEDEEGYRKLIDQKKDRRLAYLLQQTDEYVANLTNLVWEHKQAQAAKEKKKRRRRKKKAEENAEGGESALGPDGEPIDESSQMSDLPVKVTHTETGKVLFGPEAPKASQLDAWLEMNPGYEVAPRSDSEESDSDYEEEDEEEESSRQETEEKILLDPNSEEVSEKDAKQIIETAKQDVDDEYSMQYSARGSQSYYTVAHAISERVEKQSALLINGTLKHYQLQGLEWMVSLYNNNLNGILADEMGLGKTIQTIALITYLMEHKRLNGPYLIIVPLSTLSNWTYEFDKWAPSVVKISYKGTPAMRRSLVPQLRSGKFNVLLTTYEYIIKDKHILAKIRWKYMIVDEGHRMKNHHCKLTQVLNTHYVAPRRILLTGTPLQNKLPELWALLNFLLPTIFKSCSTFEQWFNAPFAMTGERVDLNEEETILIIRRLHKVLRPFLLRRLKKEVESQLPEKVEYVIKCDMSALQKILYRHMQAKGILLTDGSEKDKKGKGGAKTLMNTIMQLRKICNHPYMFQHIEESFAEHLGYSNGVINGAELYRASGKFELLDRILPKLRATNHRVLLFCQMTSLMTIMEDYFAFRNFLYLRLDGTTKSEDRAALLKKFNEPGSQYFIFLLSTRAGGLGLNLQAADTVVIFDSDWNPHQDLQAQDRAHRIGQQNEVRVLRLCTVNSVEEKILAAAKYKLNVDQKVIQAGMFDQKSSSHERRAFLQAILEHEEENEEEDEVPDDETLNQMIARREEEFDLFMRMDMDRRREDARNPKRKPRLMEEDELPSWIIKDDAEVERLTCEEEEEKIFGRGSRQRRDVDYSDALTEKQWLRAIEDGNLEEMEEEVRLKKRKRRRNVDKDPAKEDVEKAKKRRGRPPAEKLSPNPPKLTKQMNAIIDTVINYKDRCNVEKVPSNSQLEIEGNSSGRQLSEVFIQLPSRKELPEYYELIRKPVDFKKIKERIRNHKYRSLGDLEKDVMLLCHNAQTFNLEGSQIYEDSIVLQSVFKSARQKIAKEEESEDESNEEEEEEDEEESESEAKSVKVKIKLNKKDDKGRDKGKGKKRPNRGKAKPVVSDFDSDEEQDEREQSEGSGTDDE
# Description: To establish subcutaneous tumours, mice were injected with 5 × 10^6 NCI-H1568 in PBS with 5% FCS or with 1 × 10^7 A549 cells in PBS with 5% FCS. Tumour diameters were measured with a caliper three times a week. The volume of each tumour (in mm^3) was calculated according to the formula [tumour volume = length × diameter^2 × π/6]. To monitor side effects of treatment, mice were inspected daily for abnormalities and body weight was determined daily after the start of treatment. Animals were sacrificed when the tumours reached a size of 1500 mm^3. Mice were randomised into treatment groups when the average tumour size reached ~210–220 mm^3. Group sizes were calculated individually for each tumour model based on tumour growth during model establishment experiments. A power analysis was performed using a sample size calculator (https://www.stat.ubc.ca/~rollin/stats/ssize/n2.html). For both models used in the study, 10 mice per group were used for each experiment. All administrations were dosed with 10 ml/kg (s.c. and oral). Control mice were dosed subcutaneously with 10% HP-β-CD in 50% Ringer solution and orally with 15% HP-β-CD, that means the control mouse treatment was corresponding to the solvent of the compounds. Compound 6 was dosed subcutaneously either in a d1-4 q3d, d6-8 q2d, d11-13 q2d treatment (Treatment 1) or a q3 or 4d treatment (Treatment 2).
# Xenograft samples were fixed in 10% formaldehyde for 24 h and later moved to ethanol and embedded in paraffin. 2 µm-thick sections were cut using a microtome, then placed on glass slides ([…], silan printer slides PR-S:001), and subsequently dewaxed. […] All slides were reviewed and evaluated for quality by a board-certified MD specialist in Anatomic Pathology (PC). […] A positivity threshold for DAB OD was determined by normalisation with respect to the DAB OD as calculated from bona fide negative tissue (e.g. murine stroma as background). The average, background-normalised DAB OD of tumour cell nuclei was used to quantitate SMARCA2 expression in each xenograft sample.
# SMARCA4 = SMARCA4 (Homo sapiens, UniProt P51532); assay: Ex vivo human whole blood assay, SMARCA4; type: cell-based; set-up: endogenous in cells; settings: for HillSlope (best-fit value): four-parameter fit; for Bottom (best-fit value) / Span (best-fit value) / Top (best-fit value): four-parameter fit of % protein remaining
# Chain of SMARCA4 (P51532 whole entry): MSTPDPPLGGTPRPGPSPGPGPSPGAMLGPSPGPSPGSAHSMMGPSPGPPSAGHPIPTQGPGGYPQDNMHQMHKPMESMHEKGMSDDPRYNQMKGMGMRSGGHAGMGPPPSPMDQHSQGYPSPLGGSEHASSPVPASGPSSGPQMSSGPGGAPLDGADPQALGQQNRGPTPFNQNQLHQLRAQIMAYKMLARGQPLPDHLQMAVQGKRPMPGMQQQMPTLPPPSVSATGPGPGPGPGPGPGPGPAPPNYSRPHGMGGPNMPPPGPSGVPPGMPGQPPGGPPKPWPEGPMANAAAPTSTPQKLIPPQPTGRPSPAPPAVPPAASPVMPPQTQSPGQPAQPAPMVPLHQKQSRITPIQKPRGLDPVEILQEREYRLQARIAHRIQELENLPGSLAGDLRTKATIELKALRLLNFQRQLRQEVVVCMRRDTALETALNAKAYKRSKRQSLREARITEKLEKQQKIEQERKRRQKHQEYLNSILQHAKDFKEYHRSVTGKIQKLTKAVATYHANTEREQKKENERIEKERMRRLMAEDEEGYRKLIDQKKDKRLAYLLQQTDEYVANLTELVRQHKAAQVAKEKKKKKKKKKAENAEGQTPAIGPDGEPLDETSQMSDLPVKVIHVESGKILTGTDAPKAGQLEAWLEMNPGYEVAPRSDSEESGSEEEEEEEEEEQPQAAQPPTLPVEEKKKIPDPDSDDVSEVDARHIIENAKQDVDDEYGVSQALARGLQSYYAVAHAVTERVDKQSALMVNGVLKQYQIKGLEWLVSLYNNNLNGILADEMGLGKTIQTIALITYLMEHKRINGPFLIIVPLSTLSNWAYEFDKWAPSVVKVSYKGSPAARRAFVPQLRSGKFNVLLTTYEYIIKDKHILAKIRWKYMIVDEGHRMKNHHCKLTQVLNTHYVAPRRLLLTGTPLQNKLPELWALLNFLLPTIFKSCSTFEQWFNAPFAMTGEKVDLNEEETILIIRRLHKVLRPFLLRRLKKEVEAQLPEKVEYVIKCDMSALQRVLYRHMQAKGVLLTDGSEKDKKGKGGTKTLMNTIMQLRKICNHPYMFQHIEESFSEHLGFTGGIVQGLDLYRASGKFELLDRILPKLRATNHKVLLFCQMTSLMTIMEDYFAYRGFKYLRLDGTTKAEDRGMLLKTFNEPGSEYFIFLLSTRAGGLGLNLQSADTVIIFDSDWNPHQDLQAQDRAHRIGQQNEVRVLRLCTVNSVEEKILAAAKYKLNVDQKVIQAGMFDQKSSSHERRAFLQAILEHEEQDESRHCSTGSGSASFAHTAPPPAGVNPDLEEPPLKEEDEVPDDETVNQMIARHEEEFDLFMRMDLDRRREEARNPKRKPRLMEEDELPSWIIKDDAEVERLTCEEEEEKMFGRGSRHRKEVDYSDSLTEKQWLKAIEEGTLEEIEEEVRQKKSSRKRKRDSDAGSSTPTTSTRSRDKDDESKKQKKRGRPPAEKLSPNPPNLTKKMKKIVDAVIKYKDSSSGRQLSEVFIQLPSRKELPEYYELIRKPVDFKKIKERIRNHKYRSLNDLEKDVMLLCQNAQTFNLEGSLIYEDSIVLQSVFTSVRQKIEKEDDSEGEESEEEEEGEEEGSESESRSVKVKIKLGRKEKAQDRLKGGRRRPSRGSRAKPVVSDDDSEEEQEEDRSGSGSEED
# Description: The assay was performed on human whole blood from three healthy donors, purchased from the Austrian Red Cross who always obtain samples under informed consent. […] Subsequently, peripheral blood mononucleated cells (PBMCs) were isolated from individual aliquots using SepMate Tubes (StemCell) and Lymphoprep (StemCell) medium according to the manufacturer’s instructions and protein lysates were prepared using MSD Lysis buffer (Mesocale Discovery) supplemented with 1:100 Halt Phosphatase-Protease Inhibitor Cocktail (Thermo Fisher), 0.5 µl/ml benzonase (Novagen) and 10 mM DTT. SMARCA2 and SMARCA4 protein levels were determined using capillary electrophoresis (Bio-Techne) according to manufacturer’s instructions. Incubation with primary antibodies for SMARCA2 (Cell Signalling #11966 clone D9E8B RRID:AB_2797783 1:25), SMARCA4 (Abcam #ab110641 clone EPNCIR111A RRID:AB_10861578 1:25) and GAPDH (Abcam, #ab9485 RRID:AB_307275 1:1000) were performed for 30 min.
compound,measurement,setting,value
Cc1ncsc1-c1ccc(C(CCC(C)CCN2CCC(c3ccc4c(c3)n(C3CCCC3)c3nc(=O)c5c(Br)cccc5n43)CC2)NC(=O)C2CC(O)CN2C(=O)C(NC(=O)C2(F)CC2)C(C)(C)C)cc1 (centres unmarked) [ACBI2],SMARCA2 staining in tumours at the end of the efficacy study,"SMARCA2; A549 xenograft, 80 mg/kg p.o. once daily, 80 mg/kg",reduced to background levels; also recorded: decreased to background levels
same,"SMARCA2 (OD, normalised)","SMARCA2; Fig4h, 80 mg/kg po qd, background OD 0.05910 subtracted",0.00000
same,Avg Stain 1 Nuclear OD,"SMARCA2; Fig4h, 80 mg/kg po qd, per animal",0.04104 and 0.05262 and 0.08316 and 0.0589 and 0.03791 and 0.04411
same,"% protein remaining, SMARCA4","SMARCA4; Donor 1, log10[concentration (mol/l)] -6",46.277% and 56.0869% and 48.4826%
same,"% protein remaining, SMARCA4","SMARCA4; Donor 1, log10[concentration (mol/l)] -6.47712",107.389% and 70.5686% and 73.1116%
same,"% protein remaining, SMARCA4","SMARCA4; Donor 1, log10[concentration (mol/l)] -6.95424",84.4427% and 113.429% and 101.258%
same,"% protein remaining, SMARCA4","SMARCA4; Donor 1, log10[concentration (mol/l)] -7.43136",119.708% and 145.145% and 104.637%
same,"% protein remaining, SMARCA4","SMARCA4; Donor 1, log10[concentration (mol/l)] -7.90848",127.921% and 114.745% and 82.4839%
same,"% protein remaining, SMARCA4","SMARCA4; Donor 1, log10[concentration (mol/l)] -8.38561",104.578% and 95.4334% and 80.9398%
same,HillSlope (best-fit value),SMARCA4; Donor 1 SMARCA4,-2.117
same,Bottom (best-fit value),SMARCA4; Donor 1 SMARCA4,40.33%
same,Span (best-fit value),SMARCA4; Donor 1 SMARCA4,66.56%
same,Top (best-fit value),SMARCA4; Donor 1 SMARCA4,106.9%
same,"% protein remaining, SMARCA4","SMARCA4; Donor 2, log10[concentration (mol/l)] -6",50.102% and 76.224% and 84.3004%
same,"% protein remaining, SMARCA4","SMARCA4; Donor 2, log10[concentration (mol/l)] -6.47712",93.5183% and 92.0167% and 75.7642%
same,"% protein remaining, SMARCA4","SMARCA4; Donor 2, log10[concentration (mol/l)] -6.95424",80.3377% and 113.951% and 102.967%
same,"% protein remaining, SMARCA4","SMARCA4; Donor 2, log10[concentration (mol/l)] -7.43136",130.957% and 130.042% and 111.295%
same,"% protein remaining, SMARCA4","SMARCA4; Donor 2, log10[concentration (mol/l)] -7.90848",121.533% and 102.344% and 98.5667%
same,"% protein remaining, SMARCA4","SMARCA4; Donor 2, log10[concentration (mol/l)] -8.38561",105.689% and 139.901% and 105.419%
same,"% protein remaining, SMARCA4","SMARCA4; Donor 2, log10[concentration (mol/l)] -8.86273",54.3169% and 99.7184% and 98.048%
same,HillSlope (best-fit value),SMARCA4; Donor 2 SMARCA4,-2.11
same,Bottom (best-fit value),SMARCA4; Donor 2 SMARCA4,67.18%
same,Span (best-fit value),SMARCA4; Donor 2 SMARCA4,40.18%
same,Top (best-fit value),SMARCA4; Donor 2 SMARCA4,107.4%
same,"% protein remaining, SMARCA4","SMARCA4; Donor 3, log10[concentration (mol/l)] -6.47712",88.0329% and 79.2762% and 67.3837%
same,"% protein remaining, SMARCA4","SMARCA4; Donor 3, log10[concentration (mol/l)] -6.95424",92.9994% and 98.4764% and 74.8427%
same,"% protein remaining, SMARCA4","SMARCA4; Donor 3, log10[concentration (mol/l)] -7.43136",95.6107% and 82.1879% and 123.028%
same,"% protein remaining, SMARCA4","SMARCA4; Donor 3, log10[concentration (mol/l)] -7.90848",125.23% and 122.739% and 76.3116%
same,"% protein remaining, SMARCA4","SMARCA4; Donor 3, log10[concentration (mol/l)] -8.38561",96.5427% and 109.291% and 74.8647%
same,"% protein remaining, SMARCA4","SMARCA4; Donor 3, log10[concentration (mol/l)] -8.86273",92.1949% and 111.194% and 102.774%
same,HillSlope (best-fit value),SMARCA4; Donor 3 SMARCA4,-1.413
same,Bottom (best-fit value),SMARCA4; Donor 3 SMARCA4,61.66%
same,Span (best-fit value),SMARCA4; Donor 3 SMARCA4,39.83%
same,Top (best-fit value),SMARCA4; Donor 3 SMARCA4,101.5%
same,SMARCA4 degradation in human whole blood,SMARCA4; up to a top concentration of 1 µM,≤ 50%
